Assay results taken from PubChem BioAssay (NCI).
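Abbreviation: GI50, concentration required for 50% inhibition of growth. TGI marks complete inhibition of growth.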

Key:
Experiment in all cases: NCI tumour cell line growth inhibition, 384-well format
EKVX NSCLC = test system: EKVX NSCLC
MCF7 breast = test system: MCF7 breast
OVCAR-5 ovarian = test system: OVCAR-5 ovarian
OVCAR-8 ovarian = test system: OVCAR-8 ovarian
OVCAR-3 ovarian = test system: OVCAR-3 ovarian
HL-60(TB) leukemia = test system: HL-60(TB) leukemia
COLO 205 colon = test system: COLO 205 colon
MOLT-4 leukemia = test system: MOLT-4 leukemia
SNB-75 CNS = test system: SNB-75 CNS
UO-31 renal = test system: UO-31 renal
SF-539 CNS = test system: SF-539 CNS
HCT-15 colon = test system: HCT-15 colon
RXF 393 renal = test system: RXF 393 renal
SK-MEL-2 melanoma = test system: SK-MEL-2 melanoma
ACHN renal = test system: ACHN renal
NCI-H522 lung = test system: NCI-H522 lung
NCI-H23 lung = test system: NCI-H23 lung
K-562 leukemia = test system: K-562 leukemia
HS 578T breast = test system: HS 578T breast
TK-10 renal = test system: TK-10 renal
MALME-3M melanoma = test system: MALME-3M melanoma
U251 glioblastoma = test system: U251 glioblastoma
M14 melanoma = test system: M14 melanoma
MDA-MB-231 breast = test system: MDA-MB-231 breast
HOP-92 NSCLC = test system: HOP-92 NSCLC
NCI-H226 lung = test system: NCI-H226 lung
A549 NSCLC = test system: A549 NSCLC
SNB-19 CNS = test system: SNB-19 CNS
NCI-H322M lung = test system: NCI-H322M lung
SK-MEL-28 melanoma = test system: SK-MEL-28 melanoma
IGROV1 ovarian = test system: IGROV1 ovarian
SK-OV-3 ovarian = test system: SK-OV-3 ovarian
MDA-MB-468 breast = test system: MDA-MB-468 breast
786-0 renal = test system: 786-0 renal
SR leukemia = test system: SR leukemia
DU-145 prostate = test system: DU-145 prostate
HCT-116 colon = test system: HCT-116 colon
SF-295 CNS = test system: SF-295 CNS
OVCAR-4 ovarian = test system: OVCAR-4 ovarian
HOP-62 NSCLC = test system: HOP-62 NSCLC
SW-620 colon = test system: SW-620 colon
CAKI-1 renal = test system: CAKI-1 renal
SF-268 CNS = test system: SF-268 CNS
KM12 colon = test system: KM12 colon
UACC-257 melanoma = test system: UACC-257 melanoma
MDA-MB-435 melanoma = test system: MDA-MB-435 melanoma
UACC-62 melanoma = test system: UACC-62 melanoma
NCI-H460 NSCLC = test system: NCI-H460 NSCLC
BT-549 breast = test system: BT-549 breast
PC-3 prostate = test system: PC-3 prostate
HT29 colon = test system: HT29 colon
SN12C renal = test system: SN12C renal
A498 renal = test system: A498 renal
SK-MEL-5 melanoma = test system: SK-MEL-5 melanoma
T-47D breast = test system: T-47D breast

CC(C)[C@@H](CS(=O)(=O)C(C)C)N1C(=O)[C@@](C)(CC(=O)O)C[C@H](c2cccc(Cl)c2)[C@H]1c1ccc(Cl)cc1
GI50 (EKVX NSCLC): 18.9 µM
TGI (EKVX NSCLC): 51.5 µM
GI50 (MCF7 breast): 0.157 µM
TGI (MCF7 breast): 0.573 µM
GI50 (OVCAR-5 ovarian): 38 µM
TGI (OVCAR-5 ovarian): > 100 µM
GI50 (OVCAR-8 ovarian): 21.1 µM
TGI (OVCAR-8 ovarian): 92.3 µM
GI50 (OVCAR-3 ovarian): 14.5 µM
TGI (OVCAR-3 ovarian): 29.7 µM
GI50 (HL-60(TB) leukemia): 17.3 µM
TGI (HL-60(TB) leukemia): 31.2 µM
GI50 (COLO 205 colon): 52.4 µM
TGI (COLO 205 colon): > 100 µM
GI50 (MOLT-4 leukemia): 0.117 µM
TGI (MOLT-4 leukemia): 0.246 µM
GI50 (SNB-75 CNS): 26.1 µM
TGI (SNB-75 CNS): > 100 µM
GI50 (UO-31 renal): 0.199 µM
TGI (UO-31 renal): 0.445 µM
GI50 (SF-539 CNS): 16.5 µM
TGI (SF-539 CNS): 35.2 µM
GI50 (HCT-15 colon): 26.4 µM
TGI (HCT-15 colon): 78.3 µM
GI50 (RXF 393 renal): 13.1 µM
TGI (RXF 393 renal): 36 µM
GI50 (SK-MEL-2 melanoma): 19.1 µM
TGI (SK-MEL-2 melanoma): 34.6 µM
GI50 (ACHN renal): 0.228 µM
TGI (ACHN renal): 0.949 µM
GI50 (NCI-H522 lung): 20.1 µM
TGI (NCI-H522 lung): 49.3 µM
GI50 (NCI-H23 lung): 14.6 µM
TGI (NCI-H23 lung): 36.9 µM
GI50 (K-562 leukemia): 20.6 µM
TGI (K-562 leukemia): > 100 µM
GI50 (HS 578T breast): 15.5 µM
TGI (HS 578T breast): 32.8 µM
GI50 (TK-10 renal): 35.2 µM
TGI (TK-10 renal): > 100 µM
GI50 (MALME-3M melanoma): 0.45 µM
TGI (MALME-3M melanoma): 19.8 µM
GI50 (U251 glioblastoma): 15.5 µM
TGI (U251 glioblastoma): 37.8 µM
GI50 (M14 melanoma): 13.5 µM
TGI (M14 melanoma): 37.5 µM
GI50 (MDA-MB-231 breast): 20.5 µM
TGI (MDA-MB-231 breast): > 100 µM
GI50 (HOP-92 NSCLC): 17.7 µM
TGI (HOP-92 NSCLC): 40.4 µM
GI50 (NCI-H226 lung): 0.148 µM
TGI (NCI-H226 lung): 0.324 µM
GI50 (A549 NSCLC): 0.433 µM
TGI (A549 NSCLC): 13 µM
GI50 (SNB-19 CNS): 41.7 µM
TGI (SNB-19 CNS): > 100 µM
GI50 (NCI-H322M lung): 37.1 µM
TGI (NCI-H322M lung): 94.1 µM
GI50 (SK-MEL-28 melanoma): 42.5 µM
TGI (SK-MEL-28 melanoma): > 100 µM
GI50 (IGROV1 ovarian): 12.1 µM
TGI (IGROV1 ovarian): > 100 µM
GI50 (SK-OV-3 ovarian): 24 µM
TGI (SK-OV-3 ovarian): 80.2 µM
GI50 (MDA-MB-468 breast): 6.07 µM
TGI (MDA-MB-468 breast): 22.2 µM
GI50 ([…]-0 renal): 36.5 µM
TGI (786-0 renal): > 100 µM
GI50 (SR leukemia): 0.053 µM
TGI (SR leukemia): 0.187 µM
GI50 (DU-145 prostate): 27.2 µM
TGI (DU-145 prostate): > 100 µM
GI50 (HCT-116 colon): 0.334 µM
TGI (HCT-116 colon): 15.1 µM
GI50 (SF-295 CNS): 14.7 µM
TGI (SF-295 CNS): 38.7 µM
GI50 (OVCAR-4 ovarian): 18.3 µM
TGI (OVCAR-4 ovarian): > 100 µM
GI50 (HOP-62 NSCLC): 21.5 µM
TGI (HOP-62 NSCLC): 51.1 µM
GI50 (SW-620 colon): 37 µM
TGI (SW-620 colon): > 100 µM
GI50 (CAKI-1 renal): 0.204 µM
TGI (CAKI-1 renal): 13.1 µM
GI50 (SF-268 CNS): 28.9 µM
TGI (SF-268 CNS): > 100 µM
GI50 (KM12 colon): 0.319 µM
TGI (KM12 colon): 10 µM
GI50 (UACC-257 melanoma): 0.203 µM
TGI (UACC-257 melanoma): 0.671 µM
GI50 (MDA-MB-435 melanoma): 20.7 µM
TGI (MDA-MB-435 melanoma): 46 µM
GI50 (UACC-62 melanoma): 0.151 µM
TGI (UACC-62 melanoma): 12.8 µM
GI50 (NCI-H460 NSCLC): 29.3 µM
TGI (NCI-H460 NSCLC): > 100 µM
GI50 (BT-549 breast): 17.5 µM
TGI (BT-549 breast): 34.4 µM
GI50 (PC-3 prostate): 14 µM
TGI (PC-3 prostate): 62.7 µM
GI50 (HT29 colon): 37 µM
TGI (HT29 colon): > 100 µM
GI50 (SN12C renal): 32.1 µM
TGI (SN12C renal): > 100 µM
GI50 (A498 renal): 0.295 µM
TGI (A498 renal): 11.3 µM
GI50 (SK-MEL-5 melanoma): 0.994 µM
TGI (SK-MEL-5 melanoma): 15 µM
GI50 (T-47D breast): 23.3 µM
TGI (T-47D breast): 73.2 µM
